# Experiments:
# [1] = Pharmacokinetics of AUDA-BE and its metabolites in plasma after single intraperitoneal injection; type: in vivo, C57Bl/6 mice
# Protocol: A second set of animals was injected with sesame oil alone (vehicle). […] (2002) Biochem. Pharmacol., 63:1599-608; Watanabe et al. (2006) Anal. Chim. Acta., 559:37-44). Briefly, blood samples (10 μL) were collected in 1.5 mL Eppendorf microcentrifuge tubes, weighed, and vortexed with 100 μL of purified water. […] Aliquots (10 μL) were analyzed by liquid chromatography coupled mass spectroscopy LC-MS/MS (Watanabe et al. (2006) Anal. Chim. Acta., 559:37-44; Watanabe and Hammock (2001) Anal. Biochem., 299:227-34). The concentration of sEH inhibitors were quantified in extracts using HPLC with positive mode electrospray ionization and tandem mass spectrometry. Analytes were quantified on a 5-point curve with internal standard methods. Surrogate recoveries were evaluated by quantification against the internal standard. Surrogate recoveries were 70% for all reported plasma samples, the analysis of reagent blanks, matrix spikes, and analytical replicates were used to document method stability during this study. […] Differences in infarct size, enzyme activity, and blood flow rates were analyzed with a t-test for two groups and analysis of variance with post hoc Newman-Keuls multiple range test for multiple groups. The pharmacokinetic profile was examined for goodness of fit to a noncompartmental or multicompartmental models. Pharmacokinetic parameters were then obtained by fitting the blood-concentration-time data to a non-compartmental model with the WinNonlin software (Pharsight, Mountain View, Calif., USA), as described previously (Watanabe et al. (2006) Anal. Chim. Acta., 559:37-44). The criterion for statistical significance was set at P<0.05. All values are reported as mean±s.e.m.
# C57Bl/6 mice = assay: Middle cerebral artery occlusion in mice, infarct size (Example 2); type: in vivo; details: for infarct size after 2-hour MCAO: vehicle 33±2%; for reduction of infarct size compared with vehicle: 10 mg/kg
# Protocol: (2001) J. Neurosci., 21:7543-50). […] A small laser-Doppler probe was affixed to the skull to monitor cortical perfusion and verify vascular occlusion and reperfusion. […] After securing the filament in place, the surgical site was closed, and the animal was awakened and assessed at 2 hours of occlusion for neurological deficit using a simple neurological scoring system as follows: 0=no deficit, 1=failure to extend forelimb, 2=circling, 3=unilateral weakness, 4=no spontaneous motor activity. Mice with clear neurological deficit were re-anesthetized, laser-Doppler probe re-positioned over same site on the skull, and the occluding filament was withdrawn to allow for reperfusion. Mice were then allowed to recover and observed for 1 day. […] Slices were photographed, and infarcted (unstained) and uninfarcted (red color) areas were measured with MCID software (InterFocus Imaging Ltd, Linton, UK) and integrated across all five slices. To account for the effect of edema, the infarcted area was estimated indirectly by subtracting the uninfarcted area in the ipsilateral hemisphere from the contralateral hemisphere, and expressing infarct volume as a percentage of contralateral hemisphere. […] (2000) J. Physiol. Pharmacol., 51:655-72). […] Animals were randomly assigned to treatment groups.
smiles,measurement,setting,value
"CCCCOC(=O)CCCCCCCCCCCNC(=O)NC12CC3CC(CC(C3)C1)C2 [AUDA-BE, 12-(3-adamantane-1-yl-ureido)-dodecanoic acid butyl ester]",adverse effects during the 24-hour period after drug administration,[1]; 10 or 40 mg/kg doses,No apparent adverse effects
same,detection of parent drug in plasma,[1]; AUDA-BE 10 mg/kg intraperitoneal,only the metabolites AUDA and AUBA were detected
same,maximum concentration in plasma,"[1]; AUDA-BE 40 mg/kg intraperitoneal, within the first hour",2 µmol/L
same,infarct size after 2-hour MCAO,C57Bl/6 mice; 10 mg/kg intraperitoneally 1 hour before (pre),20±5%
same,infarct size after 2-hour MCAO,C57Bl/6 mice; 10 mg/kg intraperitoneally at the time of reperfusion (post),16±6%
same,reduction of infarct size compared with vehicle,C57Bl/6 mice; 1 hour before (pre),40%
same,reduction of infarct size compared with vehicle,C57Bl/6 mice; at the time of reperfusion (post),50%
same,infarct size after MCAO,"C57Bl/6 mice; AUDA-BE 10 mg/kg at reperfusion combined with MS-PPOH (0.5 mg/200 mL over 24 hours before MCAO, osmotic minipump)",34±7%

# Source: patent publication US20090069418A1, “Compositions and Methods for the Treatment of Disorders Associated with Aberrant Vasodilation” (priority 2007, published 2009)
